Measured values: patent US7157487B2, “Vla-4 inhibitors” (Daiichi Pharmaceutical Co., Ltd., priority 2000, dated 2007)

The compounds below were run against T1, integrins haα4 and β1 (VLA-4) expressed on CHO cells (Homo sapiens, UniProt P05556+P13612) (assay: In vitro Evaluation Test (1): binding of Eu3+-hVCAM-1 D1D7-IgG to CHO cells expressing integrins α4 and β1). Conditions: inhibition of Eu3+-hVCAM-1 D1D7-IgG binding to CHO cells expressing α4β1; Ki calculated from IC50.
T1 construct: expressed in transfected cells; host or cells: CHO cells
T1 sequence (P13612 34-1032): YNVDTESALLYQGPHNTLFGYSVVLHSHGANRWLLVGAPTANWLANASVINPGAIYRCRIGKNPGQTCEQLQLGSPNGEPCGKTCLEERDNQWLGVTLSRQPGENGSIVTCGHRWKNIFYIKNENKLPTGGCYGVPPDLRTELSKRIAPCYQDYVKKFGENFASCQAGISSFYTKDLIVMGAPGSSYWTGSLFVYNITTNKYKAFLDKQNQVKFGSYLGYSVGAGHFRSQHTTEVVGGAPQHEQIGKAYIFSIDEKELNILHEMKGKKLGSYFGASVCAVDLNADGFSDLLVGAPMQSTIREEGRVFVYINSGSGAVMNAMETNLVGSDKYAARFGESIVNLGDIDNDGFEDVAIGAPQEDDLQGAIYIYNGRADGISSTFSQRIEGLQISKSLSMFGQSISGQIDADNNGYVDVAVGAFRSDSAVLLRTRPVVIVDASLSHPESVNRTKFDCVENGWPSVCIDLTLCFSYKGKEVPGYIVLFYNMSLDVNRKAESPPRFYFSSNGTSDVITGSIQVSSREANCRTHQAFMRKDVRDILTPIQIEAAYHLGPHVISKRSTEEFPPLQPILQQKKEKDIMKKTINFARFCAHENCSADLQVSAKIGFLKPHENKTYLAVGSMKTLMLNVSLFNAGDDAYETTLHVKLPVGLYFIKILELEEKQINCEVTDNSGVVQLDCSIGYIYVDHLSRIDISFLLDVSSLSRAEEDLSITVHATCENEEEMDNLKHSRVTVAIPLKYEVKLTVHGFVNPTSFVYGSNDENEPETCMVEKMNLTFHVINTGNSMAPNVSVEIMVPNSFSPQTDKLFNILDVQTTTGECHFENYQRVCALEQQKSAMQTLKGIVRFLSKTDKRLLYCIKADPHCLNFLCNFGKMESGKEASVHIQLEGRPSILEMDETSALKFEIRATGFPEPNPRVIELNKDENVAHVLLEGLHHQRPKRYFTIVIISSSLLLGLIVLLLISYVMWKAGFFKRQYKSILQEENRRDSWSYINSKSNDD
T1 sequence (P05556 21-798): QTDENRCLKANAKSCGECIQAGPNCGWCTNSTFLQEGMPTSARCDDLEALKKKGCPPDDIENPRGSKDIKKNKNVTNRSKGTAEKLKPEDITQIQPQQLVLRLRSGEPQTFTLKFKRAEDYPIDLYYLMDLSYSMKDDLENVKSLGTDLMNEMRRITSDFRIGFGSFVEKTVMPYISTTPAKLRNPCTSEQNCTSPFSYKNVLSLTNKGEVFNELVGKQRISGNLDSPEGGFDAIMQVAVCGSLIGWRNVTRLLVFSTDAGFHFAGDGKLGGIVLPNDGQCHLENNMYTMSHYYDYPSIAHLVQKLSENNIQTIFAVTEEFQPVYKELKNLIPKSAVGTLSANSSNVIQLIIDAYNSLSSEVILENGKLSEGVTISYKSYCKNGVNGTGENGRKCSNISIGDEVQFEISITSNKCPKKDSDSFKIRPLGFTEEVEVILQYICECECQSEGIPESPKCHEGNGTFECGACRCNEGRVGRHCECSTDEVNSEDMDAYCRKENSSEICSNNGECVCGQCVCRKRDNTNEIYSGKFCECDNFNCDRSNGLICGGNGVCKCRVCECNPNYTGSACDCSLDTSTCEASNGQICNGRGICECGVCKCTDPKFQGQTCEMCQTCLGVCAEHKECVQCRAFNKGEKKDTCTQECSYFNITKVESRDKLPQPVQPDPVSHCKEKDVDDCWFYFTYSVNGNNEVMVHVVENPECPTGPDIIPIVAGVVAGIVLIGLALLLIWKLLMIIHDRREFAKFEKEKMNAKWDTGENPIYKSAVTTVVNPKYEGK
Procedure: CHO cells forcedly expressed by the transduction of integrins haα4 and β1 were seeded in a Coster 3599 plate (3×10^4 cells/100 μl/well) and they were cultured for 2 days. After the medium was washed with buffer A* twice, 50 μl/well of Eu^3+-hVCAM-1 D1D7-IgG diluted to […] with an assay buffer ** was added. To the resulting well was added 50 μl/well of a test compound diluted with 2% DMS0-assay buffer (in the presence or absence of 6% human serum albumin) (to a well subjected to Scatchard analysis was added a solution diluted in another manner). After stirring for 5 minutes on a plate mixer, the plate was allowed to stand at room temperature for 1 hour. Then, the plate was washed four times with the buffer A and added with 100 μl/well of an enhancement reagent (DELFIA). The plate was shaken for 5 minutes on a plate mixer, followed by measurement of fluorescence intensity by a time-resolved fluorometer (DELFIA Wallac). From the binding ratio available by the following calculation formula: ((FT−FNS)−(FI−FNS))/(FT−FNS)×100, the IC50 (concentration inhibiting 50% of binding of CHO cells with hVCAM-1 D1D7-IgG) of the test compound was determined. In the above formula, FT means the fluorescence intensity of the well free of the test compound, FNS means the fluorescence intensity of the well free of the test compound and anti-hα4 antibody (SG/73), and FI means the fluorescence intensity of the well containing the test compound. The Kd indicating the binding strength and Bmax (maximum binding) were estimated within a range of 0.06 to 20 nM in accordance with the Scatchard analysis method.
The value Ki was calculated based on:
[formula] ((L) means a ligand concentration). (* buffer A: 25 mM HEPES (pH 7.5), 150 mM NaCl, 1 mM Ca^2+, 1 MM Mg^2+, 4 mM Mn^2+; ** assay buffer: 25 mM HEPES (pH 7.5), 150 mM NaCl, 1 mM Ca^2+, 1 mM Mg^2+, 4 mM Mn^2+, 0.1% BSA, 20 μM DTPA, with/without 6% ALBUMIN, HUMAN SERUM (C/N A-1653, SIGMA)) In vitro Evaluation Test (2)

| Structure (SMILES) | Ki [nM] |
| --- | --- |
| Cn1cc(-c2nc3ccc(CC(=O)N4C[C@@H](F)C[C@H]4CN[C@H]4CC[C@H](C(=O)O)CC4)c(F)c3o2)c2ccccc21 [Example 108, trans-4-(N-(1-((7-Fluoro-2-(1-methyl-3-indolyl)-6-benzoxazolyl)acetyl)-(4S)-fluoro-(2S)-pyrrolidinylmethyl)amino)cyclohexanecarboxylic acid] | 21 |
| Cn1cc(C(=O)Nc2cc(F)c(CC(=O)N3C[C@@H](F)C[C@H]3CCN3CCC(C(=O)O)CC3)cc2Cl)c2ccccc21 [Example 109, 1-(2-(1-((5-Chloro-2-fluoro-4-((1-methyl-3-indolylcarbonyl)amino)phenyl)acetyl)-(4S)-fluoro-(2R)-pyrrolidinyl)ethyl)-4-piperidinecarboxylic acid] | 25 |
| Cc1ccc(F)cc1Nc1nc2ccc(CC(=O)N3C[C@@H](F)C[C@H]3C(=O)N[C@H]3CC[C@H](C(=O)O)CC3)c(F)c2o1 [Example 110, trans-4-(((4S)-Fluoro-1-(2-(5-fluoro-2-methylphenylamino)-7-fluoro-6-benzoxazolylacetyl)-(2S)-pyrrolidinyl)carbonylamino)cyclohexanecarboxylic acid] | 7 |
| Cn1cc(C(=O)Nc2cc(F)c(CC(=O)N3C[C@@H](F)C[C@H]3C(=O)N[C@H]3CC[C@H](C(=O)O)CC3)cc2Cl)c2ccccc21 [Example 111, trans-4-((1-(5-Chloro-2-fluoro-4-((1-methyl-3-indolylcarbonyl)amino)phenylacetyl)-(4S)-fluoro-(2S)-pyrrolidinyl)carbonylamino)cyclohexanecarboxylic acid] | 2.6 |
| O=C(Nc1ccc(CC(=O)N2C[C@@H](F)C[C@H]2C(=O)N[C@H]2CC[C@H](C(=O)O)CC2)cc1Cl)c1nccc2ccccc12 [Example 112, trans-4-((1-(3-Chloro-4-((1-isoquinolinylcarbonyl)amino)phenylacetyl)-(4S)-fluoro-(2S)-pyrrolidinyl)carbonylamino)cyclohexanecarboxylic acid] | 6.5 |
| Cn1cc(C(=O)Nc2cc(F)c(CC(=O)N3C[C@@H](OC4CCCCC4)C[C@H]3CO[C@H]3CC[C@H](C(=O)O)CC3)cc2Cl)c2ccccc21 [Example 119, trans-4-(1-((5-Chloro-2-fluoro-4-(1-methyl-3-indolylcarbonylamino)phenyl)acetyl)-(4S)-cyclohexyloxy-(2S)-pyrrolidinylmethoxy)cyclohexanecarboxylic acid] | 5.9 |
| CN(C)C(=O)CO[C@H]1C[C@@H](CO[C@H]2CC[C@H](C(=O)O)CC2)N(C(=O)Cc2cc(Cl)c(NC(=O)c3cn(C)c4ccccc34)cc2F)C1 [Example 120, trans-4-(1-((5-Chloro-2-fluoro-4-(1-methyl-3-indolylcarbonylamino)phenyl)acetyl)-(4S)-dimethylcarbamoylmethoxy-(2S)-pyrrolidinylmethoxy)-1-cyclohexanecarboxylic acid] | 1.9 |
| Cc1ccccc1Nc1nc2ccc(CC(=O)N3C[C@H](O)C[C@H]3CO[C@H]3CC[C@H](C(=O)O)CC3)cc2o1 [Example 122, trans-4-((4R)-Hydroxy-1-((2-(2-methylphenylamino)-6-benzoxazolyl)acetyl)-(2S)-pyrrolidinylmethoxy)cyclohexanecarboxylic acid] | 29 |
| Cc1ccccc1Nc1nc2ccc(CC(=O)N3C[C@@H](S(=O)(=O)c4ccccc4)C[C@H]3CO[C@H]3CC[C@H](C(=O)O)CC3)cc2o1 [Example 124, trans-4-(1-((2-(2-Methylphenylamino)-6-benzoxazolyl)acetyl)-(4S)-phenylsulfonyl-(2S)-pyrrolidinylmethoxy)cyclohexanecarboxylic acid] | 1.4 |
| CS[C@H]1C[C@@H](CO[C@H]2CC[C@H](C(=O)O)CC2)N(C(=O)Cc2ccc3nc(Nc4cc(F)ccc4C)oc3c2F)C1 [Example 126, trans-4-(1-((2-(5-Fluoro-2-methylphenylamino)-7-fluoro-6-benzoxazolyl)acetyl)-(4S)-methylthio-(2S)-pyrrolidinylmethoxy)cyclohexanecarboxylic acid] | 2 |
| CS[C@H]1C[C@@H](CO[C@H]2CC[C@H](C(=O)O)CC2)N(C(=O)Cc2cc(Cl)c(NC(=O)c3nn(C)c4ccccc34)cc2F)C1 [Example 127, trans-4-(1-((5-Chloro2-fluoro-4-((1-methyl-3-indazolylcarbonyl)amino)phenyl)acetyl)-(4S)-methylthio-(2S)-pyrrolidinylmethoxy)cyclohexanecarboxylic acid] | 9.7 |
| Cn1cc(C(=O)Nc2cc(F)c(CC(=O)N3C[C@@H](S(C)(=O)=O)C[C@H]3CO[C@H]3CC[C@H](C(=O)O)CC3)cc2Cl)c2ccccc21 [Example 128, trans-4-(1-((5-Chloro-2-fluoro-4-((1-methyl-3-indolylcarbonyl)amino)phenyl)acetyl)-(4S)-methanesulfonyl-(2S)-pyrrolidinylmethoxy)cyclohexanecarboxylic acid] | 2.7 |
| Cn1nc(C(=O)Nc2cc(F)c(CC(=O)N3C[C@@H](S(C)(=O)=O)C[C@H]3CO[C@H]3CC[C@H](C(=O)O)CC3)cc2Cl)c2ccccc21 [Example 129, trans-4-(1-((5-Chloro-2-fluoro-4-((1-methyl-3-indazolylcarbonyl)amino)phenyl)acetyl)-(4S)-methanesulfonyl-(2S)-pyrrolidinylmethoxy)cyclohexanecarboxylic acid] | 1.5 |
| Cn1cc(-c2nc3ccc(CC(=O)N4CCC[C@H]4CO[C@H]4CC[C@H](C(=O)O)CC4)cc3o2)c2ccc(F)cc21 [Example 131, trans-4-(1-((2-(6-Fluoro-1-methyl-3-indolyl)-6-benzoxazolyl)acetyl)-(2S)-pyrrolidinylmethoxy)-1-cyclohexanecarboxylic acid] | 17 |
| C[C@H]1C[C@@H](CO[C@H]2CC[C@H](C(=O)O)CC2)N(C(=O)Cc2cc(Cl)c(NC(=O)c3cn(C)c4ccccc34)cc2F)C1 [Example 133, trans-4-(1-(5-Chloro-2-fluoro-4-((1-methyl-1H-3-indolylcarbonyl)amino)phenylacetyl)-(4S)-methyl-(2S)-pyrrolidinylmethoxy)cyclohexanecarboxylic acid] | 22 |
| Cc1ccc(F)cc1Nc1nc2ccc(CC(=O)N3C[C@@H](C)C[C@H]3CO[C@H]3CC[C@H](C(=O)O)CC3)c(F)c2o1 [Example 134] | 3.1 |
| C[C@H]1C[C@@H](CO[C@H]2CC[C@H](C(=O)O)CC2)N(C(=O)Cc2cc(Cl)c(NC(=O)c3nn(C)c4ccccc34)cc2F)C1 [Example 135, trans-4-(1-(5-Chloro-2-fluoro-4-((1-methyl-1H-3-indazolylcarbonyl)amino)phenylacetyl)-(4S)-methyl-(2S)-pyrrolidinylmethoxy)cyclohexanecarboxylic acid] | 19 |
| Cc1ccc(F)cc1Nc1nc2ccc(CC(=O)N3[C@H](CO[C@H]4CC[C@H](C(=O)O)CC4)CC[C@@H]3C)c(F)c2o1 [Example 137, trans-4-(1-((2-(5-Fluoro-2-methylphenylamino)-7-fluoro-6-benzoxazolyl)acetyl)-(5S)-methyl-(2S)-pyrrolidinylmethoxy)cyclohexanecarboxylic acid] | 5.6 |
| COC[C@H]1C[C@@H](CO[C@H]2CC[C@H](C(=O)O)CC2)N(C(=O)Cc2ccc3nc(Nc4cc(F)ccc4C)oc3c2F)C1 [Example 140, trans-4-(1-(7-Fluoro-2-(5-fluoro-2-methylphenylamino)-6-benzoxazolylacetyl)-(4S)-methoxymethyl-(2S)-pyrrolidinylmethoxy)cyclohexanecarboxylic acid] | 1.8 |
